Test results published in ChEMBL document CHEMBL1201862, “PubChem BioAssay data set” (2004).
Activity calls are given as the source filed them.

Assays:
[1] = target: Heat shock protein HSP 90-alpha (Homo sapiens, UniProt P07900); type: functional, organism-based
[2] = reduction of Shn3 3'UTR-driven luciferase in osteoblasts – cell-based, Clone20 osteoblasts, firefly luciferase, cherry-picked, dose response (AID 624132); type: functional;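 also: firefly luciferase luminescence from reporter carrying the Shn3 3'UTR in osteoblasts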
[3] = non-specific 3'UTR reporter inhibition in Clone20-Shn3RL – cell-based, Renilla luciferase, cherry-picked, counter-screen for Shn3 inhibitor project, dose response (AID 624133); type: functional
[4] = target: T1, COUP transcription factor 2 (Homo sapiens, UniProt P24468); test: Luminescence-based cell-based high throughput dose response assay to identify inhibitors of COUP-TFII (NR2F2).; type: functional;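 also: HEK293 cells transiently cotransfected with COUP-TFII expression vector and reporter; luciferase reporter luminescence driven by COUP-TFII from the pX2-168 reporter plasmid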
T1 sequence (P24468 whole entry): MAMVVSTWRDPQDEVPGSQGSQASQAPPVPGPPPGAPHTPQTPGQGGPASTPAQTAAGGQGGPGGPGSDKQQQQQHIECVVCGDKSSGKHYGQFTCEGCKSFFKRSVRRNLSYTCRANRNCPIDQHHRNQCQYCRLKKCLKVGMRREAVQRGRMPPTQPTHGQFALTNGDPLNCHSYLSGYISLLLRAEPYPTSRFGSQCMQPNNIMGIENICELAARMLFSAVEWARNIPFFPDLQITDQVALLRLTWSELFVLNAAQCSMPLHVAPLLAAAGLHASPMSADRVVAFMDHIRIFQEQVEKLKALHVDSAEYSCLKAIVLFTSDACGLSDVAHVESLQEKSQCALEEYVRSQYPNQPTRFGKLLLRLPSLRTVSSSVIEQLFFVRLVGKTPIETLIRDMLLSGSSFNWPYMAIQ

[5] = reduced cellular PGC1a acetyl-lysine signal – cell-based, cherry-picked samples, dose response (AID 720514); type: functional;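 also: potency may reflect raised or lowered acetylation signal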
[6] = rise of 2N DNA cells, HeLa – IC50, dose response (AID 1117349); type: functional, cell-based
[7] = rise of 4N DNA cells, HeLa – IC50, dose response (AID 1117351); type: functional, cell-based
HEK293 = test: cells; type: functional, cell-based; settings: Homo sapiens
[8] = target: T2, Nuclear receptor subfamily 0 group B member 1 (Homo sapiens, UniProt P51843); test: Luminescence-based cell-based high throughput dose response assay for inhibitors of the orphan nuclear receptor subfamily 0, group B, member 1 (DAX1; NR0B1). [Related pubchem assays (depositor defined):AID504766, AID504790]; type: functional
T2 sequence (P51843 whole entry): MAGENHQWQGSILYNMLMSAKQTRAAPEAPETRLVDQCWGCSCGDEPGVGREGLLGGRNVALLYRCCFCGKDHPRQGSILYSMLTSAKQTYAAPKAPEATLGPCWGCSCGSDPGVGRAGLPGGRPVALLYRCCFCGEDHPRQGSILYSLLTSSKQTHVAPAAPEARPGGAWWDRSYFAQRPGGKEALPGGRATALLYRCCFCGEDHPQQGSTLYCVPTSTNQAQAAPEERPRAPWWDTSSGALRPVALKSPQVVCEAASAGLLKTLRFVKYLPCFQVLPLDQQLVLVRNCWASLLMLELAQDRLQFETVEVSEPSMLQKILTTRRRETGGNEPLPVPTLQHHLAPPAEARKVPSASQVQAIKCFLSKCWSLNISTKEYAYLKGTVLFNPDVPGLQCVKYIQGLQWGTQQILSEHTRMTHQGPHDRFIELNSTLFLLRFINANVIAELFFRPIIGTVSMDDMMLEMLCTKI

[9] = target: Disintegrin and metalloproteinase domain-containing protein 17 (Homo sapiens, UniProt P78536); test: exosite inhibitors of ADAM17, dose response, biochemical (AID 743260)
Sequence of Disintegrin and metalloproteinase domain-containing protein 17 (P78536 whole entry, the tested form may be a part): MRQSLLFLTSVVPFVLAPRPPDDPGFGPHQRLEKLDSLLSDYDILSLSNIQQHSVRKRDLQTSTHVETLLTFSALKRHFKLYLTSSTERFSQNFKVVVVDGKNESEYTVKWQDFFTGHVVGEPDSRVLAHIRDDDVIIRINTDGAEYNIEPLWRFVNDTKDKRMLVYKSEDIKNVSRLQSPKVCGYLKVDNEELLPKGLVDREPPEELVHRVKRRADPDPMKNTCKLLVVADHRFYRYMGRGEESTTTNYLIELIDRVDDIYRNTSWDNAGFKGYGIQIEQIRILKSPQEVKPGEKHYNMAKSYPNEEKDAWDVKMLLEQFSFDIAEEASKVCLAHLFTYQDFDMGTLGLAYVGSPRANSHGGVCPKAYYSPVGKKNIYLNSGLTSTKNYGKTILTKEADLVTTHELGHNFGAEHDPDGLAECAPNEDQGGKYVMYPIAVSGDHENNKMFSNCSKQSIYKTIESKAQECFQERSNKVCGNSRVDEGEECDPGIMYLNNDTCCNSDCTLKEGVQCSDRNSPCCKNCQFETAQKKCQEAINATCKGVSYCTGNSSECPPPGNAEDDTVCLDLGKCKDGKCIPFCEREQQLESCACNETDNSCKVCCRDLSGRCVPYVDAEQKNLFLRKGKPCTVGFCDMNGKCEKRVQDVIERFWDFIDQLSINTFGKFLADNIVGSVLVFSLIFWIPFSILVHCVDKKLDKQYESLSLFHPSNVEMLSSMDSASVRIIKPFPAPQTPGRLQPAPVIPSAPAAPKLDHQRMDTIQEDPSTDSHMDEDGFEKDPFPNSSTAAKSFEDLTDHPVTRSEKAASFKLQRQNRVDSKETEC

[10] = inhibition of ADAM10 peptide cleavage – biochemical, FRET peptide substrate, recombinant human ADAM10, selectivity assay for ADAM17 exosite inhibitor project, dose response (AID 743259);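 also: ADAM10 enzyme cleaving a FRET peptide substrate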
Fatty acid synthase = Fatty acid synthase (Homo sapiens, UniProt P49327); test: inhibition of human FAS-TE enzyme activity – biochemical, endpoint fluorescence intensity, powder samples, SAR follow-up (AID 652164); type: functional
Sequence of Fatty acid synthase (P49327 whole entry): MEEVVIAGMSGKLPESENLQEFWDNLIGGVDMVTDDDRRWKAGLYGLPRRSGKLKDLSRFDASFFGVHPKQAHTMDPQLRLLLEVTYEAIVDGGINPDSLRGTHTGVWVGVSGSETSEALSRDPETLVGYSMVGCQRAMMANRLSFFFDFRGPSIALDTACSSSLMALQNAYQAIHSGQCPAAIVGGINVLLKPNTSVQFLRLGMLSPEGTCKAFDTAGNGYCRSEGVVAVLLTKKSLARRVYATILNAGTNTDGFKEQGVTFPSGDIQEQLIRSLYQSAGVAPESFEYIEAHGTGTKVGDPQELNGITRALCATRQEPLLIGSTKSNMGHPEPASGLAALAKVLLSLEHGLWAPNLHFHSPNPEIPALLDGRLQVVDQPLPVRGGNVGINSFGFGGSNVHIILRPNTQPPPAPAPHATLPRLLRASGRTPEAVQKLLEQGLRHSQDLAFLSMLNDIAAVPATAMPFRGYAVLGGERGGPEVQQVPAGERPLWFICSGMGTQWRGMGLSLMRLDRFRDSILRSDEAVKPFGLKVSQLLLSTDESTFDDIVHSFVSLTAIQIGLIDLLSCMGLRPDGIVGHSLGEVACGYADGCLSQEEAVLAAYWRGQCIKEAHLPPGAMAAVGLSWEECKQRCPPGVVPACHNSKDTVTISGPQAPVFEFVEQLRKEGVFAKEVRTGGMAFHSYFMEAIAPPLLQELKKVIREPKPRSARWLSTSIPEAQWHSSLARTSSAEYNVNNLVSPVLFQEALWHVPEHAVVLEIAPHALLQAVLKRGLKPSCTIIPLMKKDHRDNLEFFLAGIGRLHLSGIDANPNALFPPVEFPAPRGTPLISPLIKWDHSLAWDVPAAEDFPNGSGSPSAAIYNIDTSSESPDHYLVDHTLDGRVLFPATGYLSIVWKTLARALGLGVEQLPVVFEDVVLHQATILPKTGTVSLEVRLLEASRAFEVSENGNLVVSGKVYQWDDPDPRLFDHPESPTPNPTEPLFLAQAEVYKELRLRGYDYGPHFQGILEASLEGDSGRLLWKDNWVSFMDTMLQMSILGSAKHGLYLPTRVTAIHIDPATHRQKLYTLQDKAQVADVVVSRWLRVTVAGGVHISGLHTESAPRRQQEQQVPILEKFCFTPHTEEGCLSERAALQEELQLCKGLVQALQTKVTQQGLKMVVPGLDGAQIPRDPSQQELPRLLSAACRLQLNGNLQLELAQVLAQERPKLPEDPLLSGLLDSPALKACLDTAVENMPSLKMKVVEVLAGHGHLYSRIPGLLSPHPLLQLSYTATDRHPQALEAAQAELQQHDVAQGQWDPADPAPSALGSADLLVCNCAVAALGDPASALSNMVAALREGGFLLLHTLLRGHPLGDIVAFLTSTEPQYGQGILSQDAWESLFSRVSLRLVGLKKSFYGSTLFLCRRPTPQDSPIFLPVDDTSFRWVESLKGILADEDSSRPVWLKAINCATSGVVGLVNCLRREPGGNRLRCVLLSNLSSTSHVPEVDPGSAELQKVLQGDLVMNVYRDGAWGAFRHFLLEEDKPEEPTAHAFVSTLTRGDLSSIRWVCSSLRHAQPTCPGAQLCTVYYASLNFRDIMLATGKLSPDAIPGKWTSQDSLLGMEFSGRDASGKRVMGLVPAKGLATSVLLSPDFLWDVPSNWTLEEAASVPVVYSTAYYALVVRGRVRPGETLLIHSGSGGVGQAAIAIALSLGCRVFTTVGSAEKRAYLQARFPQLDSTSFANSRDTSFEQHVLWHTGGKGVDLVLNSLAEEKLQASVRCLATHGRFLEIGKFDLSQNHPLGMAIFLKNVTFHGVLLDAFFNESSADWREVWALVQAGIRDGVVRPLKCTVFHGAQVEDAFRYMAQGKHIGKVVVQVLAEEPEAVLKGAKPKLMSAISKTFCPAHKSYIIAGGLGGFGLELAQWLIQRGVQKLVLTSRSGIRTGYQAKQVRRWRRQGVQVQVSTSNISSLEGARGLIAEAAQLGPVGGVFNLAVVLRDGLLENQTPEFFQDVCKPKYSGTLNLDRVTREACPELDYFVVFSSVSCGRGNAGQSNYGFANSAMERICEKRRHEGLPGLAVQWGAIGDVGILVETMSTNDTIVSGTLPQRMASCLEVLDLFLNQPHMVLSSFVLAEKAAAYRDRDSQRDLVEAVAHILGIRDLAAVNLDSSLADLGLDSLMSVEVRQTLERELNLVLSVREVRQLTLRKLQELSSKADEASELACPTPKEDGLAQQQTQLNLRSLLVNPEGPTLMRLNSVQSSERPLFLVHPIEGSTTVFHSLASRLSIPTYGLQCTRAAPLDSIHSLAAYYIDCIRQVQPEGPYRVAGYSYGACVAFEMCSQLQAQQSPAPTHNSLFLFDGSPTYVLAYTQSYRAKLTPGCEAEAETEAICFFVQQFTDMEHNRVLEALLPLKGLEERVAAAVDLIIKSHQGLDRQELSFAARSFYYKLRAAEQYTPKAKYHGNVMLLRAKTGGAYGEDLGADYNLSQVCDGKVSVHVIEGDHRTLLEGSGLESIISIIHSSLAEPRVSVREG

[11] = cytotoxicity in MITF-independent A375 cells – cell-based, CellTiter-Glo luminescence, dry powder, set 4, counter-screen for MITF inhibitor project, dose response (AID 624364); type: functional; settings: A-375;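 also: A375 melanoma cells are MITF independent so this is a counter screen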
[12] = viability loss in MITF-independent A375 cells – cell-based, CellTiter-Glo luminescence, dry powder, set 2, counter-screen for MITF inhibitor project, dose response (AID 624489); type: functional; settings: A-375;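 also: actives are compounds lowering A375 viability meaning general cytotoxicity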
cells = settings: HEK293
[13] = viability loss in HepG2 liver cells – cell-based, ATP luminescence, cherry-pick, set 6, cytotoxicity control, dose response (AID 1053125); type: functional
[14] = A549 cell cytotoxicity, dose response, cytotoxicity control, plate reader, cherry-pick, antagonist series (AID 743412); type: functional, cell-based
[15] = toxicity toward HepG2 liver cells – cell-based, plate reader, cherry-pick, antagonist series, cytotoxicity control, dose response (AID 743416); type: functional
[16] = inhibition of bursicon-driven LGR2 cAMP signaling – cell-based, HEK293, CRE-luciferase reporter, cherry pick, dose response (AID 743342); type: functional
[17] = blockade of melanocortin 4 receptor signaling – cell-based, plate reader, cherry pick, counter-screen for LGR2 antagonist project, dose response (AID 743444); type: functional;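 also: transfected HEK 293 cells stimulated with alpha-MSH peptide; potency of inhibitors of the alpha-MSH evoked signal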
[18] = viability loss in HEK293 cells – cell-based, plate reader, cherry-picked samples, cytotoxicity control, dose response (AID 743446); type: functional
[19] = Cytotoxicity screening for potential Inhibitors of Bacterial Capsule Biogenesis (4).; type: functional

## C[C@@H]1C[C@@H]([C@H](O)CC2CC(=O)NC(=O)C2)C(=O)[C@@H](C)C1 [CYCLOHEXIMIDE]
[1]
  AC50: < 0.195 µM (active)
[2]
  AC50: 0.345 µM (active)
[3]
  AC50: 0.695 µM (active)
[4]
  IC50: 1.32 µM (active)
[5]
  AC50: 2.23 µM (active)
[6]
  IC50: > 10 µM (inactive)
[7]
  IC50: > 10 µM (inactive)

## COCCOc1ccc(C(F)(F)F)cc1NC(=O)CN1C(=O)NC(C)(c2ccc3c(c2)OCO3)C1=O (configuration not stated)
HEK293
  IC50: > 67.5 µM (inactive)
[8]
  IC50: > 67.5 µM (inactive)
[9]
  IC50: > 69.5 µM (inactive)
[10]
  IC50: 27.7 µM (inactive)

## O=C(Nc1nc(-c2ccc(S(=O)(=O)N3CCOCC3)cc2)cs1)C1CCCC1
Fatty acid synthase
  IC50: > 80 µM (inactive)

## CN1CCN(C2=C(NC(=O)c3ccccc3)C(=O)c3ccccc3C2=O)CC1
[11]
  AC50: 17 µM (active)
[12]
  AC50: 12.9 µM (active)

## Cc1ccc2c(c1)-c1c(cnn1CC(=O)Nc1ccccc1N1CCN(C)CC1)CO2
cells
  AC50: 47.1 µM (active)

## Cc1cccn2c(=O)c3cc(C#N)/c(=N\C(=O)c4cccs4)n(CC(C)C)c3nc12
[13]
  AC50: > 52 µM (inactive)

## C[C@H]1CCCCO[C@@H](CN(C)S(=O)(=O)c2ccc(Cl)cc2)[C@@H](C)CN([C@@H](C)CO)C(=O)c2cc(NC(=O)NC3CCCCC3)ccc2O1
[14]
  AC50: 20.1 µM (active)
[15]
  AC50: > 52 µM (inactive)
[16]
  AC50: 32.4 µM (active)
[17]
  AC50: 30.1 µM (active)
[18]
  AC50: > 52 µM (inactive)

## Cc1nc2ccc(C(=O)Nc3ccncc3)cc2s1
[19]
  CC50: > 300 µM (active)
